# From patent US10322132B2, “Prevention or treatment of uratic or gouty diseases” (SHANTON PHARMA CO., LTD., priority 2015, dated 2019)
# Key:
# serum uric acid = experiment: Uric acid-lowering test in monkeys having hyperuricemia (UA subcutaneous injection); type: in vivo, cynomolgus monkeys; set-up: Reduction rate or serum uric acid: concentration or dose not given beside the values; conditions: for Content of serum uric acid: Administration group
# Method: The experiment was conducted by reference to Komoriya K, Osada Y, Hasegawa M, Horiuchi H, Kondo S, Couch R C, Griffin T B. Hypouricemic effect of allopurinol and the novel xanthine oxidase inhibitor TEI-6720 in chimpanzees. Eur J Pharmacol. 1993 Dec. 21; 250(3): 455-60.
# In the Model group, three non-naïve cynomolgus monkeys (1 #, 2 # and 3 #) were administered with UA by subcutaneous injection at the nape. Blood was collected from the vein before UA administration and 0.5 h, 1 h, 2 h, 4 h, 6 h and 24 h after UA administration. The blood was left still at room temperature. The serum was collected by centrifugation. The content of serum uric acid was measured.
# In the Administration group, three non-naïve cynomolgus monkeys (1 #, 2 # and 3 #) were administered with the test sample by intravenous injection after 2 weeks of clearance. Blood was collected from the vein before administration and 2 h after administration of test sample. Then, the monkeys were administered with UA by subcutaneous injection at the nape and blood was collected from the vein 1 h, 2 h and 4 h after the UA administration. The blood was left still at room temperature. The serum was collected by centrifugation. The content of serum uric acid was measured. Reduction rate of serum uric acid in healthy monkeys administered with test sample=(average uric acid content before administration−average uric acid content 2 h after administration of test sample)/average uric acid content before administration*100%, Reduction rate of serum uric acid in monkeys having hyperuricemia after administration of test sample=(uric acid content after UA administration in the model group−uric acid content after UA administration in the administration group)/uric acid content in the model group*(100%).
# That was, the samples were collected before administration, 2 h after administration of test sample and 1 h, 2 h and 4 h after UA administration for determination of the serum uric acid content. The contents of serum uric acid in the model group and the administration group and the reduction rates of serum uric acid were shown in the following Tables 3-1, 3-2 and 3-3, respectively.
# [1] = biological target: T1, human urate transporter 1 (hURAT1) (Homo sapiens, UniProt Q96S37); experiment: Uptake of 14C-labeled uric acid in hURAT1 transfected cells; type: cell-based; conditions: 14C uric acid uptake, hURAT1-transfected HEK-293T cells, 5 min at 37° C.; read-out: IC50 (μM), inhibition of hURAT1 activity
# T1 construct: expressed in transfected cells; host or cells: HEK-293T
# T1 sequence (Q96S37 1-553): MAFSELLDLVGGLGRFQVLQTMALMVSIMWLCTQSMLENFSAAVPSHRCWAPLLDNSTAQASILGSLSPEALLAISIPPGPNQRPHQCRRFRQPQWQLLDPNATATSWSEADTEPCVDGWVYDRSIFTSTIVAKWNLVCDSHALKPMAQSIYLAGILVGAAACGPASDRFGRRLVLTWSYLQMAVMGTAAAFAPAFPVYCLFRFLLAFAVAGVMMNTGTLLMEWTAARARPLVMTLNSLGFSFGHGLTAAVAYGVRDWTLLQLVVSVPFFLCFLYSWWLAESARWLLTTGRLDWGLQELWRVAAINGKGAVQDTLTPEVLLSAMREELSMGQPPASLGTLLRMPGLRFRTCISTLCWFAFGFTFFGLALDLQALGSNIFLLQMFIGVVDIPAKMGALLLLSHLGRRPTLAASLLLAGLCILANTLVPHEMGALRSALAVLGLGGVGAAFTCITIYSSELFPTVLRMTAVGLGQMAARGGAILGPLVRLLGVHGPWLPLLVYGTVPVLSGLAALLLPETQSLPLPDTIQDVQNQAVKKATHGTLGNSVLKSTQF
# Method: The compounds were prepared into the stock solutions (5 mM) with dimethyl sulfoxide (DMSO). This experiment involved 8 concentrations in total. The final concentrations were 5000 nM, 1250 nM, 312.5 nM, 78.1 nM, 19.5 nM, 4.9 nM, 1.2 nM and 0.3 nM, respectively.
# Preparation of buffers: chlorine-free HBSS buffer (125 mM sodium gluconate, 4.8 mM potassium gluconate, 1.3 mM calcium gluconate, 1.2 mM KH2PO4, 1.2 mM MgSO4, 5.6 mM glucose, 25 mM 4-hydroxyethylpiperazine ethanesulfonic acid (HEPES) (pH 7.4)); lysis buffer (100 mM NaOH)
# Transfected cells stably expressing human urate transporter 1 (hURAT1) were obtained by: placing human embryonic kidney cells (HEK-293T) in a cell culture plate containing complete medium, incubating the cells for 24 h at 37° C. in 5% CO2, rinsing the cells with phosphate buffered saline (PBS) followed by trypsin digestion to prepare a suspension containing single cells; placing 8×10^6 cells a cell culture plate, adding dropwise TransIT-293 Reagent:DNA complexes (1.5 ml of Opti-MEM I Reduced-Serum Medium, 15 g of plasmid DNA, and 45 μL of TransIT-293 Reagent were mixed uniformly and then incubated at room temperature for 30 min) to different areas of the cell culture plate, gently shaking the cell culture plate to homogeneously distribute the TransIT-293 Reagent:DNA complexes, and incubating the cells for 48 h at 37° C. in 5% CO2.
# Uptake of ^14C-labeled uric acid in hURAT1 transfected cells: (1) hURAT1-transfected cells were placed in a Poly-D-lysine 96-well microplate at a cell density of 6×10^4/well, and left still overnight at 37° C. in 5% CO2; (2) after the cells were placed in the Poly-D-lysine 96-well microplate for 12 h, the cells were washed for 3 times with 200 μl of pre-heated chlorine-free HBSS buffer per well, and the washing solution in the microplate was removed; (3) 50 μl of uric acid-containing [8-14C] […]
# IL-1β, IL-6, KC and TNFα = experiment: Air sacculitis (MSU-induced air sacs), cytokines in lavage fluid; conditions: for IL-1β / KC / TNF-α: lavage fluid supernatant, mean, n = 8
# Method: (§1) The sterile MSU crystals were added to 5 mL of sterilized saline before injected into air sacs.
# (§2) Male Wistar rats were raised for one week and then randomly divided into 6 groups. Animals were anesthetized and then injected with 24 mL of sterile air in their backs. The animals received the second injection of air 4 days later. On day 7, the rats in the blank group and model group were intragastrically administered with the solvent at a dose of 10 mL/kg; the rats in the dexamethasone group were administered by intraperitoneal injection with dexamethasone at a dose of 5 mg/kg; the rats in the colchicine group were intragastrically administered with colchicine at a dose of 5 mg/kg. […] One hour after administration, the rats in the blank group were injected with 5 mL of saline into the air sacs at the back, and the rats from other groups were injected with 5 mL of MSU crystal suspension (1 mg/mL) into the air sacs at the back. Four hours later, the lavage fluid in the air sacs was taken, and a portion of the lavage fluid was used for cytological analysis. The remaining was centrifuged at 8000 rpm for 15 min, and the supernatant was stored at −80° C. for the detection of cytokines IL-1β, IL-6, KC and TNFα. The test results were shown as mean±SEM and statistically analyzed by t-test.
# MSU-induced air sacs = experiment: Air sacculitis (MSU-induced air sacs), leukocyte counts in lavage fluid; conditions: for Leukocyte count: Basophil / Leukocyte count: Eosinocyte / Leukocyte count: Lymphocyte / Leukocyte count: Monocyte / Leukocyte count: Neutrophil / Total cell count: lavage fluid 4 h after MSU, mean ± SEM, n = 8;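 as to all read-outs here: male Wistar rats with dorsal air sacs, dosed 1 h before injecting MSU crystal suspension, compared with saline-injected blank and vehicle-treated model groups, cytological analysis of lavage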
# Method: as §1, §2
# TNF-α = experiment: LPS-induced TNF-α release; type: in vivo, Male BALB/C mice
# Method: The experiment was conducted by reference to Pascale Gaillard, Isabelle Jeanclaude-Etter, etc. Design and Synthesis of the First Generation of Novel Potent, Selective, and in Vivo Active (Benzothiazol-2-yl)acetonitrile
# BALB/C mice were raised in the SPF-grade animal room for 1 week, and were then randomly divided into the corresponding model group and the administration groups according to the body weight. The […] were administered with the solvent or the test samples by subcutaneous injection at a dose of 10 mg/kg. The rats were administered with LPS by intraperitoneal injection at a dose of 15 mg/kg 30 min after the administration of the solvent or the test samples. The mice were anesthetized with sodium pentobarbital (45 mg/kg by intraperitoneal injection) 1 h after LPS administration. The blood was collected by cardiac puncture, and the content of TNF-α (tumor necrosis factor) in plasma was measured with a Mouse TNF-α Elisa Ready-set-go kit.
smiles,measurement,setting,value
"CCCCCn1c(=O)[nH]c(=O)c2[nH]c(Cl)nc21 [Compound A, 8-chloro-3-pentyl-3,7-dihydro-1H-purine-2,6-dione]",Reduction rate or serum uric acid,"serum uric acid; 1 h after UA administration vs model group, animal 1#",35.5%
same,Reduction rate or serum uric acid,"serum uric acid; 1 h after UA administration vs model group, animal 2#",26.2%
same,Reduction rate or serum uric acid,"serum uric acid; 1 h after UA administration vs model group, animal 3#",56.0%
same,Reduction rate or serum uric acid,"serum uric acid; 1 h after UA administration vs model group, mean",39.2%
same,Reduction rate or serum uric acid,"serum uric acid; 2 h after UA administration vs model group, animal 1#",67.1%
same,Reduction rate or serum uric acid,"serum uric acid; 2 h after UA administration vs model group, animal 2#",37.2%
same,Reduction rate or serum uric acid,"serum uric acid; 2 h after UA administration vs model group, animal 3#",45.5%
same,Reduction rate or serum uric acid,"serum uric acid; 2 h after UA administration vs model group, mean",49.1%
same,Reduction rate or serum uric acid,"serum uric acid; 2 h after administration of test sample vs before administration (healthy monkeys), animal 1#",46.4%
same,Reduction rate or serum uric acid,"serum uric acid; 2 h after administration of test sample vs before administration (healthy monkeys), animal 2#",30.2%
same,Reduction rate or serum uric acid,"serum uric acid; 2 h after administration of test sample vs before administration (healthy monkeys), animal 3#",1.56%
same,Reduction rate or serum uric acid,"serum uric acid; 2 h after administration of test sample vs before administration (healthy monkeys), mean",26.1%
same,Reduction rate or serum uric acid,"serum uric acid; 4 h after UA administration vs model group, animal 1#",64.3%
same,Reduction rate or serum uric acid,"serum uric acid; 4 h after UA administration vs model group, animal 2#",77.1%
same,Reduction rate or serum uric acid,"serum uric acid; 4 h after UA administration vs model group, animal 3#",32.6%
same,Reduction rate or serum uric acid,"serum uric acid; 4 h after UA administration vs model group, mean",58.0%
same,Content of serum uric acid,"serum uric acid; 1 h after UA administration, animal 1#",75.3 µmol/L
same,Content of serum uric acid,"serum uric acid; 1 h after UA administration, animal 2#",97.5 µmol/L
same,Content of serum uric acid,"serum uric acid; 1 h after UA administration, animal 3#",53.1 µmol/L
same,Content of serum uric acid,"serum uric acid; 1 h after UA administration, mean",75.3 µmol/L
same,Content of serum uric acid,"serum uric acid; 2 h after UA administration, animal 1#",26.6 µmol/L
same,Content of serum uric acid,"serum uric acid; 2 h after UA administration, animal 2#",58.0 µmol/L
same,Content of serum uric acid,"serum uric acid; 2 h after UA administration, animal 3#",37.0 µmol/L
same,Content of serum uric acid,"serum uric acid; 2 h after UA administration, mean",40.5 µmol/L
same,Content of serum uric acid,"serum uric acid; 4 h after UA administration, animal 1#",28.4 µmol/L
same,Content of serum uric acid,"serum uric acid; 4 h after UA administration, animal 2#",12.3 µmol/L
same,Content of serum uric acid,"serum uric acid; 4 h after UA administration, animal 3#",43.2 µmol/L
same,Content of serum uric acid,"serum uric acid; 4 h after UA administration, mean",28.0 µmol/L
same,Content of serum uric acid,"serum uric acid; intravenous, 2 h after administration of test sample (before UA), animal 1#",12.3 µmol/L
same,Content of serum uric acid,"serum uric acid; intravenous, 2 h after administration of test sample (before UA), animal 2#",37.0 µmol/L
same,Content of serum uric acid,"serum uric acid; intravenous, 2 h after administration of test sample (before UA), animal 3#",34.6 µmol/L
same,Content of serum uric acid,"serum uric acid; intravenous, 2 h after administration of test sample (before UA), mean",28.0 µmol/L
same,effect on content of serum uric acid in the test monkeys (in words),serum uric acid; compared to the model group (self-comparation),significantly reduce
same,IC50,[1],2.52 µM
same,IL-1β,"IL-1β, IL-6, KC and TNFα; 30 mg/kg intragastric",79.2 pg/mL
same,KC,"IL-1β, IL-6, KC and TNFα; 30 mg/kg intragastric",8742.1 pg/mL
same,TNF-α,"IL-1β, IL-6, KC and TNFα; 30 mg/kg intragastric",29.7 pg/mL
same,IL-1β,"IL-1β, IL-6, KC and TNFα; 100 mg/kg intragastric",88.6 pg/mL
same,KC,"IL-1β, IL-6, KC and TNFα; 100 mg/kg intragastric",5757.4 pg/mL
same,TNF-α,"IL-1β, IL-6, KC and TNFα; 100 mg/kg intragastric",18.7 pg/mL
same,"effect on increase of IL-6, KC and TNFα (in words)","IL-1β, IL-6, KC and TNFα; oral dose of 100 mg/kg",significantly inhibit
same,Leukocyte count: Basophil,MSU-induced air sacs; 30 mg/kg intragastric,0 ± 0 *10^4/air sacs
same,Leukocyte count: Eosinocyte,MSU-induced air sacs; 30 mg/kg intragastric,5.8 ± 1.2 *10^4/air sacs
same,Leukocyte count: Lymphocyte,MSU-induced air sacs; 30 mg/kg intragastric,8.1 ± 1.2 *10^4/air sacs
same,Leukocyte count: Monocyte,MSU-induced air sacs; 30 mg/kg intragastric,174.2 ± 35.4 *10^4/air sacs
same,Leukocyte count: Neutrophil,MSU-induced air sacs; 30 mg/kg intragastric,18.6 ± 6.4^$ *10^4/air sacs
same,Total cell count,MSU-induced air sacs; 30 mg/kg intragastric,206.8 ± 42.9^$ *10^4/air sacs
same,Leukocyte count: Basophil,MSU-induced air sacs; 100 mg/kg intragastric,0 ± 0 *10^4/air sacs
same,Leukocyte count: Eosinocyte,MSU-induced air sacs; 100 mg/kg intragastric,4.6 ± 1.4 *10^4/air sacs
same,Leukocyte count: Lymphocyte,MSU-induced air sacs; 100 mg/kg intragastric,8.0 ± 1.9 *10^4/air sacs
same,Leukocyte count: Monocyte,MSU-induced air sacs; 100 mg/kg intragastric,151.4 ± 24.1 *10^4/air sacs
same,Leukocyte count: Neutrophil,MSU-induced air sacs; 100 mg/kg intragastric,12.2 ± 3.4^$ *10^4/air sacs
same,Total cell count,MSU-induced air sacs; 100 mg/kg intragastric,176.2 ± 29.6^$$$ *10^4/air sacs
same,effect on increase of the total cell count and neutrophil count in the lavage fluid caused by MSU (in words),MSU-induced air sacs; compound A at the oral doses of 30 mg/kg and 100 mg/kg,significantly inhibit
"CCCCCn1c(=O)n(C)c(=O)c2[nH]c(Cl)nc21 [Compound D, 8-chloro-1-methyl-3-pentyl-3,7-dihydro-1H-purine-2,6-dione]",inhibition (%),"TNF-α; TNF-α in plasma vs model group, 10 mg/kg subcutaneous",29.6%
same,effect on content of TNF-α in the plasma of the test mice (in words),TNF-α; compared with the model group,significantly reduce
same,Content of TNF-α,"TNF-α; plasma, 10 mg/kg subcutaneous 30 min before LPS 15 mg/kg i.p., 1 h after LPS",1124 pg/mL
same,IC50,[1],0.87 µM
